# Key:
# Assay type in all cases: in vivo, broiler cross chicks
# [1] = Growth promotion in chicks, Example XII first set (Table VI); settings: for Average 4 Week Performance: Feed Efficiency / Average 4 Week Performance: Gain / Improved Response Over Basal Ration: Feed Efficiency / Improved Response Over Basal Ration: Gain: 25 g/T in basal ration, 4 weeks; for growth rate / feed efficiency, production parameters (in words): 25 g/T, first set of tests
# Excerpt: This example compares growth promotion activity of the product of Example I with other growth promotants at a concentration of 25 g/T in the Basal Ration described in Example VII. The other growth promotants include the product described in Example I of U.S. Pat. No. 3,542,784 -- Burch and quinoxaline-1,4-dioxide. Day old broiler cross chicks were weight equalized into groups of eight chicks each, and four replicates of eight chicks each were fed the experimental rations over a 4 week period. […]
# [2] = Growth promotion in chicks, Example XII repeat (Table VII); settings: for Average 4 Week Performance: Feed Efficiency / Average 4 Week Performance: Gain / Improved Response Over Basal Ration: Feed Efficiency / Improved Response Over Basal Ration: Gain: 25 g/T in basal ration, 4 weeks
# Excerpt: (§1) This example compares growth promotion activity of the product of Example I with other growth promotants at a concentration of 25 g/T in the Basal Ration described in Example VII. The other growth promotants include the product described in Example I of U.S. Pat. No. 3,542,784 -- Burch and quinoxaline-1,4-dioxide. Day old broiler cross chicks were weight equalized into groups of eight chicks each, and four replicates of eight chicks each were fed the experimental rations over a 4 week period.
# The growth promotion tests described in Example X were repeated with the additional testing the products of Examples II and III.
# [3] = Growth promotion and feed efficiency in chicks, Example VII (Table I); settings: for Average 4 Week Performance: Feed Efficiency / Average 4 Week Performance: Gain / Improved Response Over Basal Ration + Bacitracin: Feed Efficiency / Improved Response Over Basal Ration + Bacitracin: Gain: 200 g/T in basal ration + bacitracin (4 g/T), 4 weeks; for significance of improved feed efficiencies (level of probability) / significance of improved weight gains (level of probability): 200 g/T, analysis of variance
# Excerpt: One hundred 20 day-old broiler cross chicks were weight equalized into 15 groups of eight chicks each and placed in battery brooders. The 40 chick treatment groups (five replicates) were fed the one of the three rations described below for a 4 week period. Weekly measurements of body weights and feed consumption were made by replicate, and these measurements used to calculate weight gain and feed efficiency.
# The commercial type broiler starter basal ration which was used in this study was designated as the Basal Ration, and had the following composition:
# The preceding basal ration was mixed with bacitracin at a level of 4 g/T as the only growth stimulant to simulate commercial practice. This mixture was designated as the Basal Ration + Bacitracin (4 g/T) and constituted the negative control in this study.
# A second ration was prepared by fortifying the Basal Ration + bacitracin described above with the Product from Example I above at a level of 200 g/T, and was designated as Basal Ration + Bacitracin + Product of Example I (200 g/T). A third ration was prepared by fortifying the Basal Ration + bacitracin described above with chlortetracycline (CTC) at a level of 200 g/T, and was designated as Basal Ration + Bacitracin + Chlortetracycline (200 g/T). Chlortetracycline served as the positive control in this test because it had shown strong growth promotion in numerous previous tests at this therapeutic level.
# The commercial value of the product of Example I is indicated by the fact that these significant responses were obtained in addition to the growth stimulation provided by the presence of bacitracin in the ration. It is important to note that the negative controls in this example and in Examples VIII and X which follow were characterized by rapid rates of growth. This high plane of growth and feed efficiency performance on the part of the negative controls makes the responses to the test compounds all the more meaningful.
# The term "growth promotion" is used herein to describe the beneficial effect of a compound in eliciting a more rapid rate of weight gain when compared to the weight gain of control animals not fed the compound. "Feed efficiency" is a term regularly used in animal husbandry and is a measure of the pounds of feed required to produce a pound of gain in the weight of the animal. A lower mathmatical value for feed efficiency reflects improved performance. […] In this case, as in the case of the weight gain (fifth column), an improved performance is indicated by a higher positive number.
# [4] = Growth promotion in chicks at low feed levels, Example VIII (Table II); settings: for Average 4 Week Performance: Feed Efficiency / Average 4 Week Performance: Gain / Improved Response Over Basal Ration: Feed Efficiency / Improved Response Over Basal Ration: Gain: 10 g/T in basal ration, 4 weeks
# Excerpt: Day old broiler cross chicks were weight equalized into groups of eight chicks each and were placed in battery brooders. The 32 chick treatment groups (four replicates) were fed one of the five rations described below for a 4 week period. Weekly measurements of body weights and feed consumption were made by replicate, and these measurements used to calculate weight gain and feed efficiency.
# The basal ration was the basal ration used in Example VII above. The remaining five rations were obtained by mixing the indicated quantities of bacitracin (4 g/T), chlortetracycline (10 g/T), product of Example I (10 g/T), and product of Example III of U.S. Pat. No. 3,542,784 -- Burch (10 g/T) as growth promotants with the basal ration.
# [5] = Growth promotion in chicks, titration dosage, Example IX (Table III)
# Excerpt: The concentrations used in this test were 6.25, 12.5, 25, 50, 100, 200 and 400 g of the Product of Example I per ton of the Basal Ration described in Example VII above. The same number and size chick treatment groups were used in this test as in Example VIII above.
# [6] = Growth promotion in chicks at 25 g/T, Example X (Table IV); settings: 25 g/T
# Excerpt: as §1
# [7] = Growth promotion in chicks, Example XI (Table V); settings: for feed efficiency (in words) / growth rate (in words): 25 g/T; for Average 4 Week Performance: Feed Efficiency / Average 4 Week Performance: Gain / Improved Response Over Basal Ration: Feed Efficiency / Improved Response Over Basal Ration: Gain: 4 weeks
# Excerpt: as §1
# The growth promotion tests described in Example X were repeated with the exception that five replicates of eight chicks each were fed the formulations described in Table V for 4 weeks.
# [8] = 25 g/T combined with bacitracin 25 g/T
compound,measurement,setting,value
"O=[N+]([O-])c1ccc(C=Cc2nc(Nc3cccc(O)c3)c3ccccc3n2)o1 [Example II, 2-[2-(5-nitro-2-furyl)vinyl]-4-(m-hydroxyanilino)quinazoline]",Average 4 Week Performance: Feed Efficiency,[1],1.580
same,Average 4 Week Performance: Gain,[1],773.0 g
same,Improved Response Over Basal Ration: Feed Efficiency,[1],+3.3%
same,Improved Response Over Basal Ration: Gain,[1],+3.9%
same,"growth rate / feed efficiency, production parameters (in words)",[1],moderate improvements
same,Average 4 Week Performance: Feed Efficiency,[2],1.672
same,Average 4 Week Performance: Gain,[2],696.4 g
same,Improved Response Over Basal Ration: Feed Efficiency,[2],+6.3%
same,Improved Response Over Basal Ration: Gain,[2],+2.0%
"O=[N+]([O-])c1ccc(C=Cc2nc(Nc3ccc(O)cc3)c3ccccc3n2)o1 [Example I, 2-[2-(5-nitro-2-furyl)vinyl]-4-(p-hydroxyanilino)quinazoline]",Average 4 Week Performance: Feed Efficiency,[3],1.597
same,Average 4 Week Performance: Gain,[3],739.8 gms
same,Improved Response Over Basal Ration + Bacitracin: Feed Efficiency,[3],+7.2%
same,Improved Response Over Basal Ration + Bacitracin: Gain,[3],+6.5%
same,significance of improved feed efficiencies (level of probability),[3],99.9%
same,significance of improved weight gains (level of probability),[3],99.5%
same,Average 4 Week Performance: Feed Efficiency,[4],1.671
same,Average 4 Week Performance: Gain,[4],750.7 g
same,Improved Response Over Basal Ration: Feed Efficiency,[4],+5.1%
same,Improved Response Over Basal Ration: Gain,[4],+4.2%
same,growth promotion (in words),"[4]; 10 g/T, compared with other growth promotants of the test",greater growth promotion than any of the other growth promotants used in this test
same,Average 4 Week Performance: Feed Efficiency,[5]; 6.25 g/T,1.657
same,Average 4 Week Performance: Gain,[5]; 6.25 g/T,714.6 g
same,Improved Response Over Basal Ration: Feed Efficiency,[5]; 6.25 g/T,+3.4%
same,Improved Response Over Basal Ration: Gain,[5]; 6.25 g/T,-3.4%
same,activity (in words),[5]; 6.25 g/T,little or no activity
same,Average 4 Week Performance: Feed Efficiency,[5]; 12.5 g/T,1.652
same,Average 4 Week Performance: Gain,[5]; 12.5 g/T,765.3 g
same,Improved Response Over Basal Ration: Feed Efficiency,[5]; 12.5 g/T,+3.7%
same,Improved Response Over Basal Ration: Gain,[5]; 12.5 g/T,+3.4%
same,Average 4 Week Performance: Feed Efficiency,[5]; 25 g/T,1.603
same,Average 4 Week Performance: Gain,[5]; 25 g/T,805.7 g
same,Improved Response Over Basal Ration: Feed Efficiency,[5]; 25 g/T,+6.5%
same,Improved Response Over Basal Ration: Gain,[5]; 25 g/T,+8.9%
same,Average 4 Week Performance: Feed Efficiency,[5]; 50 g/T,1.609
same,Average 4 Week Performance: Gain,[5]; 50 g/T,785.3 g
same,Improved Response Over Basal Ration: Feed Efficiency,[5]; 50 g/T,+6.2%
same,Improved Response Over Basal Ration: Gain,[5]; 50 g/T,+6.1%
same,Average 4 Week Performance: Feed Efficiency,[5]; 100 g/T,1.663
same,Average 4 Week Performance: Gain,[5]; 100 g/T,742.7 g
same,Improved Response Over Basal Ration: Feed Efficiency,[5]; 100 g/T,+3.0%
same,Improved Response Over Basal Ration: Gain,[5]; 100 g/T,+0.4%
same,weight gain improvement (in words),[5]; 100 g/T,unexplained absence of weight gain improvement
same,Average 4 Week Performance: Feed Efficiency,[5]; 200 g/T,1.609
same,Average 4 Week Performance: Gain,[5]; 200 g/T,782.5 g
same,Improved Response Over Basal Ration: Feed Efficiency,[5]; 200 g/T,+6.2%
same,Improved Response Over Basal Ration: Gain,[5]; 200 g/T,+5.8%
same,Average 4 Week Performance: Feed Efficiency,[5]; 400 g/T,1.678
same,Average 4 Week Performance: Gain,[5]; 400 g/T,751.5 g
same,Improved Response Over Basal Ration: Feed Efficiency,[5]; 400 g/T,+2.2%
same,Improved Response Over Basal Ration: Gain,[5]; 400 g/T,+1.6%
same,response (in words),[5]; 400 g/T,sharp downturn
same,level at which noticeable growth promotion began,[5]; in vivo,12.5 g/T
same,optimum concentration (economics and efficacy),[5]; in vivo,25 g/T
same,effect on feed efficiency (in words),[6],strongest response in growth rate and feed efficiency
same,growth response (in words),[6],strongest response in growth rate and feed efficiency
same,feed efficiency (in words),[7],substantial improvement in feed efficiency
same,growth rate (in words),[7],moderate improvement in growth rate
same,combination effect (in words),[7]; [8],synergistic effects
same,Average 4 Week Performance: Feed Efficiency,[7]; [8],1.666
same,Average 4 Week Performance: Gain,[7]; [8],766.4 g
same,Improved Response Over Basal Ration: Feed Efficiency,[7]; [8],+7.5%
same,Improved Response Over Basal Ration: Gain,[7]; [8],+4.6%
same,Average 4 Week Performance: Feed Efficiency,[7]; 25 g/T in basal ration,1.677
same,Average 4 Week Performance: Gain,[7]; 25 g/T in basal ration,756.1 g
same,Improved Response Over Basal Ration: Feed Efficiency,[7]; 25 g/T in basal ration,+6.9%
same,Improved Response Over Basal Ration: Gain,[7]; 25 g/T in basal ration,+3.2%
same,Average 4 Week Performance: Feed Efficiency,[1],1.623
same,Average 4 Week Performance: Gain,[1],762.1 g
same,Improved Response Over Basal Ration: Feed Efficiency,[1],+0.7%
same,Improved Response Over Basal Ration: Gain,[1],+2.4%
same,"growth rate / feed efficiency, production parameters (in words)",[1],moderate improvements in production parameters
same,Average 4 Week Performance: Feed Efficiency,[2],1.706
same,Average 4 Week Performance: Gain,[2],695.3 g
same,Improved Response Over Basal Ration: Feed Efficiency,[2],+4.4%
same,Improved Response Over Basal Ration: Gain,[2],+1.9%
same,"growth rate / feed efficiency, production parameters (in words)","[2]; 25 g/T, second set of tests",moderate improvements in production parameters
"CN(C)[C@@H]1C(O)=C(C(N)=O)C(=O)[C@@]2(O)C(O)=C3C(=O)c4c(O)ccc(Cl)c4[C@@](C)(O)[C@H]3C[C@@H]12 [Chlortetracycline, reference compound]",Average 4 Week Performance: Feed Efficiency,[3],1.607
same,Average 4 Week Performance: Gain,[3],732.4 gms
same,Improved Response Over Basal Ration + Bacitracin: Feed Efficiency,[3],+6.6%
same,Improved Response Over Basal Ration + Bacitracin: Gain,[3],+5.5%
same,significance of improved feed efficiencies (level of probability),[3],99.9%
same,significance of improved weight gains (level of probability),[3],99.5%
same,Average 4 Week Performance: Feed Efficiency,[4],1.745
same,Average 4 Week Performance: Gain,[4],714.2 g
same,Improved Response Over Basal Ration: Feed Efficiency,[4],+0.9%
same,Improved Response Over Basal Ration: Gain,[4],-0.9%
same,feed efficiency (in words),[7],moderate improvements in feed efficiencies
same,growth rate (in words),[7],slight improvements in growth rates
same,Average 4 Week Performance: Feed Efficiency,[7]; 25 g/T in basal ration,1.717
same,Average 4 Week Performance: Gain,[7]; 25 g/T in basal ration,752.5 g
same,Improved Response Over Basal Ration: Feed Efficiency,[7]; 25 g/T in basal ration,+4.7%
same,Improved Response Over Basal Ration: Gain,[7]; 25 g/T in basal ration,+2.7%
